Results from paper PMC8448983 (European journal of medicinal chemistry, 2021).
Like-named read-outs stand apart in the source and are kept apart here. Marks after values point to notes of the source that are not given here.

What was measured:
[1] = biological target: T1, human A2B adenosine receptor (Homo sapiens, UniProt P29275); settings: USEF, HEK-A2B membranes, 25 nM [3H]-DPCPX; for percent of inhibition, A2B AR: 10 μM compound
T1 sequence (P29275 1-332): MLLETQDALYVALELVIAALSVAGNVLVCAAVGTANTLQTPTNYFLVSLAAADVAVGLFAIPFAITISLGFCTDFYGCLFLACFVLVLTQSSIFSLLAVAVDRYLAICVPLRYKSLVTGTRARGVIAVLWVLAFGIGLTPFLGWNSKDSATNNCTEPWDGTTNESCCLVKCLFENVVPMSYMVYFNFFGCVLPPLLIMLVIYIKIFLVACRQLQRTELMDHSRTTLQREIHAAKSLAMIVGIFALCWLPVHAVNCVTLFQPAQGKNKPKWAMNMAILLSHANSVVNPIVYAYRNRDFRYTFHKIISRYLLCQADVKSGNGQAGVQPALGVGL

[2] = biological target: T2, human A2A adenosine receptor (Homo sapiens, UniProt P29274); settings: 10 μM compound; USEF; HeLa-A2A membranes; 3 nM [3H]-ZM241385
[3] = biological target: T2, human A2A adenosine receptor; assay: Radioligand binding, HEK293 cells expressing human A2A receptor; settings: for percent of inhibition, A2A AR: 10 μM compound, NIH laboratory, agonist radioligand
[4] = biological target: T3, human A1 adenosine receptor (Homo sapiens, UniProt P30542); assay: Radioligand binding, HEK293 cells expressing human A1 receptor; settings: for percent of inhibition, A1 AR: 10 μM compound
T3 sequence (P30542 1-326): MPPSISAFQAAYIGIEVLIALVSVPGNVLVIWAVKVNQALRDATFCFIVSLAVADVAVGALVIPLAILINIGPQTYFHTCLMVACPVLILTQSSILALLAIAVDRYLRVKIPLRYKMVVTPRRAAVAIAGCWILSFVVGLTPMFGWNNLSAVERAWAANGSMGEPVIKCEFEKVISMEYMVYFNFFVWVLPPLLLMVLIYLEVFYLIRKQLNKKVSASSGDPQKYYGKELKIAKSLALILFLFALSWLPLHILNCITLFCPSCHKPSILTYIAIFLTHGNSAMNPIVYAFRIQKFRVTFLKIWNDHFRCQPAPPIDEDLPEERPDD

[5] = biological target: T4, human A3 adenosine receptor (Homo sapiens, UniProt P0DMS8); assay: Radioligand binding, HEK293 cells expressing human A3 receptor; settings: for percent of inhibition, A3 AR: 10 μM compound, agonist radioligand; for percent of inhibition, A3 AR / Ki: NIH laboratory, HEK293; for activity class (active / inactive) in SAR and selectivity analysis / receptor selectivity class: compounds 33–52, NIH binding data; for Ki: read-out: Ki, A3 AR, [125I]-N6-(4-amino-3-iodobenzyl)adenosine-5′-N-methyluronamide
T4 sequence (P0DMS8 1-318): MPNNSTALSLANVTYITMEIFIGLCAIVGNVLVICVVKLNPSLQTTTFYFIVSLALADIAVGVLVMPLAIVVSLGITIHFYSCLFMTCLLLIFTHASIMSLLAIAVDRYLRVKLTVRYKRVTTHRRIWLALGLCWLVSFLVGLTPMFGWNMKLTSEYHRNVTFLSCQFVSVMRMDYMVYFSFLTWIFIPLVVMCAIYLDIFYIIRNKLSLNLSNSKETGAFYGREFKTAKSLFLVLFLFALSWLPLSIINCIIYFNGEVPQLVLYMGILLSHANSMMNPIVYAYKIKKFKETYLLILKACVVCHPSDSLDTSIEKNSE

[6] = biological target: T4, human A3 adenosine receptor; settings: for percent of inhibition, A3 AR: 10 μM compound; for percent of inhibition, A3 AR / Ki: USEF, HeLa-A3 membranes, 10 nM [3H]-NECA; for activity class (active / inactive) in selectivity analysis / receptor selectivity class: N6 carborane derivatives, USEF binding data; for Ki: read-out: Ki, A3 AR
[7] = biological target: T3, human A1 adenosine receptor; settings: 10 μM compound; USEF; CHO-A1 membranes; 1 nM [3H]-DPCPX
[8] = tested on: human blood platelets; assay: ADP-induced platelet aggregation in platelet-rich plasma; format: cell-based; settings: 10 μM ADP, mean ± SD, n = 6–9
[9] = biological target: T5, human A3 receptor (Homo sapiens, UniProt P0DMS8); assay: Functional cAMP assay in CHO-A3 cells; format: cell-based; settings: for KB (antagonist mode; functional character at A3): inhibition of NECA (0.1 μM) effect on cAMP; for % Emax: maximal agonist effect; for EC50: read-out: EC50 (cAMP), agonist mode
T5 sequence (P0DMS8 1-318): T4 sequence (P0DMS8 1-318)

[10] = NIH laboratory, HEK293, [3H]-N6-R-phenylisopropyladenosine

T2 sequence (P29274 whole entry): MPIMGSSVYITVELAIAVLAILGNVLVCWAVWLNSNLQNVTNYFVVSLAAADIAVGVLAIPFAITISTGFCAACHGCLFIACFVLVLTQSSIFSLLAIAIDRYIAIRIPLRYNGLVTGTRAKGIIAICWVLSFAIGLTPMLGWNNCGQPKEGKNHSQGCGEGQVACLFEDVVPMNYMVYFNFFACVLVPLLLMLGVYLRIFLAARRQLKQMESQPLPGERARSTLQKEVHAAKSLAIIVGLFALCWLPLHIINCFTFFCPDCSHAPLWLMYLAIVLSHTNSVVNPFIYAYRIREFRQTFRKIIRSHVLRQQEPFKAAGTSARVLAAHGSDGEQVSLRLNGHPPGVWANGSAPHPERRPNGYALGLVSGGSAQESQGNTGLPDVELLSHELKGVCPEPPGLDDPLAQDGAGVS

Compound	percent of inhibition, A2A AR [3]	percent of inhibition, A1 AR [4, 10]	activity class (active / inactive) in SAR and selectivity analysis [5]	receptor selectivity class [5]	area under the aggregation curve, ADP-induced platelet aggregation ([8]; 10 μM compound)	area under the aggregation curve, ADP-induced platelet aggregation ([8]; 50 μM compound)	further results
N^6-(3-phenylpropyl)-2-chloro-2′-deoxyadenosine [Compound 28]							percent of inhibition, A2B AR [1]: 1 ± 1 %^a; percent of inhibition, A2A AR [2]: 14 ± 2 %^a
N^6-[3-(1,12-dicarba-closo-dodecaboran-1-yl)propyl]-2-chloro-2′-deoxyadenosine [Compound 27]							percent of inhibition, A3 AR [6]: 10 ± 3 %^a; Ki ([1]; read-out: Ki, A2B AR): 4.67 µM; percent of inhibition, A2A AR [2]: 1 ± 1 %^a; percent of inhibition, A1 AR [7]: 25 ± 1 %^a
Nc1ncnc2c1nc(C#Cc1ccccc1)n2[C@@H]1O[C@H](CO)[C@@H](O)[C@H]1O [Compound 34, 8-(2-phenylethynyl)adenosine]			active	A3 selective			inhibition at 10 µM ([4]; read-out: percent of inhibition, A1 AR): 11 ± 3%
2′-O-(1,12-dicarba-closo-dodecaboran-1-yl)propyleneoxymethyl]-adenosine [Compound 37]	7 ± 2%	6 ± 10%			661.1 ± 61.3 arbitrary units	616.0 ± 24.7 arbitrary units	percent of inhibition, A3 AR [5]: 19 ± 14%
8-[2-(1,12-dicarba-closo-dodecaboran-1-yl)ethynyl] adenosine [Compound 33]	17.1 ± 8%	29 ± 7%	inactive				percent of inhibition, A3 AR [5]: 48 ± 12%
N^6-[(1,12-dicarba-closo-dodecaboran-1-yl)prop-3-yl]-5′-ethylcarbamoyl adenosine [Compound 17]					646.2 ± 58.6 arbitrary units	639.5 ± 64.7 arbitrary units	percent of inhibition, A3 AR [6]: 34 ± 4 %^a; activity class (active / inactive) in selectivity analysis [6]: inactive; percent of inhibition, A2B AR [1]: 4 ± 4 %^a; percent of inhibition, A2A AR [2]: 1 ± 1 %^a; percent of inhibition, A1 AR [7]: 18 ± 3 %^a
N^6-[3-(1,12-dicarba-closo-dodecaboran-1-yl)propyl]-2-chloroadenosine [Compound 23]					715.3 ± 85.8 arbitrary units	657.0 ± 67.2 arbitrary units	percent of inhibition, A2A AR [2]: 1 ± 1 %^a
Nc1ncnc2c1nc(CCc1ccccc1)n2[C@@H]1O[C@H](CO)[C@@H](O)[C@H]1O [Compound 36, 8-(2-phenylethyl)adenosine]			inactive				
8-[2-(1,12-dicarba-closo-dodecaboran-1-yl)ethynyl]-2′-deoxyadenosine [Compound 43]	10 ± 5%	6 ± 6%	inactive				percent of inhibition, A3 AR [5]: 1 ± 8%
8-[2-(1,12-dicarba-closo-dodecaboran-1-yl)ethyl]-adenosine [Compound 35]	18 ± 4%	16 ± 7%	inactive		665.7 ± 86.8 arbitrary units	682.3 ± 17.4 arbitrary units	percent of inhibition, A3 AR [5]: 9 ± 13%
N^6-[(1,12-dicarba-closo-dodecaboran-1-yl)but-4-yl]-5′-ethylcarbamoyl-adenosine [Compound 15]					698.7 ± 74.4 arbitrary units	657.1 ± 70.7 arbitrary units	activity class (active / inactive) in selectivity analysis [6]: active; receptor selectivity class [6]: A3 AR selective; Ki [6]: 0.437 µM; percent of inhibition, A2B AR [1]: 7 ± 2 %^a; percent of inhibition, A2A AR [2]: 9 ± 1 %^a; percent of inhibition, A1 AR [7]: 40 ± 2 %^a; KB (antagonist mode; functional character at A3) [9]: no antagonist; % Emax [9]: 99%; EC50 [9]: 1.01 µM
N^6-[(1,12-dicarba-closo-dodecaboran-1-yl)but-4-yl]adenosine [Compound 7]					686.5 ± 66.1 arbitrary units	642.8 ± 45.4 arbitrary units	activity class (active / inactive) in selectivity analysis [6]: active; receptor selectivity class [6]: A3 AR selective; Ki [6]: 0.444 µM; percent of inhibition, A2B AR [1]: 1 ± 1 %^a; percent of inhibition, A2A AR [2]: 2 ± 1 %^a; percent of inhibition, A1 AR [7]: 29 ± 1 %^a; KB (antagonist mode; functional character at A3) [9]: no antagonist; % Emax [9]: 103%; EC50 [9]: 0.271 µM
N^6-[3-(1,12-Dicarba-closo-dodecaboran-1-yl)propyl]adenosine [Compound 39]	0 ± 1%	32 ± 1%			678.4 ± 55.7 arbitrary units	658.0 ± 46.8 arbitrary units	percent of inhibition, A3 AR [5]: 0 ± 12%

Now from value to compound, other results behind:

percent of inhibition, A2A AR [3]	percent of inhibition, A1 AR [4, 10]	activity class (active / inactive) in SAR and selectivity analysis [5]	receptor selectivity class [5]	Compound	area under the aggregation curve, ADP-induced platelet aggregation ([8]; 10 μM compound)	area under the aggregation curve, ADP-induced platelet aggregation ([8]; 50 μM compound)	further results
12 ± 14%	27 ± 9%			2-ethyl-(1,12-dicarba-closo-dodecaboran-2-yl)arabinoadenosine [Compound 49]			percent of inhibition, A3 AR [5]: 25 ± 8%
		active	A3 selective	Nc1nc(C#Cc2ccccc2)nc2c1ncn2[C@@H]1O[C@H](CO)[C@@H](O)[C@@H]1O [Compound 48]			
		inactive		Nc1ncnc2c1nc(CCc1ccccc1)n2[C@H]1C[C@H](O)[C@@H](CO)O1 [Compound 52]			
17 ± 2.7%	15 ± 1%	active	A3 selective	2-ethynyl-(1,12-dicarba-closo-dodecaboran-2-yl) arabinoadenosine [Compound 47]			Ki [5]: 4.39 ± 2.02 µM
		active	not selective	Nc1ncnc2c1nc(C#Cc1ccccc1)n2[C@H]1C[C@H](O)[C@@H](CO)O1 [Compound 44]			
		active	not selective	2-Ethynyl-(1,12-dicarba-closo-dodecaboran-1-yl)adenosine [Compound 41]			Ki ([3]; read-out: Ki, A2A AR, NIH laboratory, [3H]-2-[p-(2-carboxyethyl)phenyl-ethylamino]-5′-N-ethylcarboxamidoadenosine): 3.07 ± 0.53 µM; Ki ([4]; read-out: Ki, A1 AR, NIH laboratory, HEK293, [3H]-N6-R-phenylisopropyladenosine): 2.87 ± 1.69 µM; Ki [5]: 0.206 ± 0.031 µM
		inactive	not selective	Nc1nc(CCc2ccccc2)nc2c1ncn2[C@@H]1O[C@H](CO)[C@@H](O)[C@H]1O [Compound 46]			
		inactive		Nc1nc(CCc2ccccc2)nc2c1ncn2[C@@H]1O[C@H](CO)[C@@H](O)[C@@H]1O [Compound 50]			
		active	not selective	Nc1nc(C#Cc2ccccc2)nc2c1ncn2[C@@H]1O[C@H](CO)[C@@H](O)[C@H]1O [Compound 42, 2-Phenylethynyladenosine]			
